# Assay results as given in ChEMBL document CHEMBL3046664, “Synthesis in vitro/in vivo evaluation and in silico physicochemical study of prodrug approach for brain targeting of alkylating agent” (Med Chem Res, 2013).
# Key:
# [1] = Half life in silver nitrate solution assessed as conversion to 1-Benzyl-3-{(bis(2-chloroethyl)amino)carbamoyl}pyridinium bromide at 5% after 2 min by UV-Visible spectrophotometric analysis; format: physicochemical
# [2] = test system: Blood; experiment: Half life in 100% Homo sapiens (human) whole blood assessed as conversion to 1-Benzyl-3-{(bis(2-chloroethyl)amino)carbamoyl}pyridinium bromide at 10 x 10^-4 M by UV-spectrophotometric analysis; format: ADME, tissue-based; settings: 1000 µM
# [3] = test system: Blood; experiment: Half life in 100% Rattus norvegicus (rat) whole blood assessed as conversion to 1-Benzyl-3-{(bis(2-chloroethyl)amino)carbamoyl}pyridinium bromide at 10 x 10^-4 M by UV-spectrophotometric analysis; format: ADME, tissue-based; settings: 1000 µM
# [4] = Stability of the compound assessed as decomposition at 4 degC after 60 days by UV spectrophotometric analysis; format: physicochemical; settings: read-out: Drug degradation
# [5] = Stability of the compound assessed as decomposition at 25 degC after 60 days by UV spectrophotometric analysis; format: physicochemical; settings: read-out: Drug degradation
# [6] = test system: Brain; experiment: Half life in Rattus norvegicus (rat) brain homogenate assessed as conversion to 1-Benzyl-3-{(bis(2-chloroethyl)amino)carbamoyl}pyridinium bromide at 6.25 x 10^-4 M by UV-spectrophotometric analysis; format: ADME, tissue-based; settings: 625 µM
# [7] = Half life of the compound after 30 min by UV-spectrophotometric analysis in presence of 4-(4-nitrobenzyl)pyridine; format: physicochemical
# [8] = test system: Blood; experiment: Prodrug conversion in Sprague-Dawley Rattus norvegicus (rat) blood assessed as assessed as 1-(4-Nitrobenzyl-3-{(bis(2-chloroethyl)amino)carbamoyl}pyridinium bromide level at 40 mg/kg, iv measured at 100 min by UV-spectrophotometric analysis; format: ADME, organism-based; parameters: dose 40 mg/kg, route intravenous; settings: in vivo
# [9] = test system: Brain; experiment: Half life in Rattus norvegicus (rat) brain homogenate assessed as conversion to 1-(4-Nitrobenzyl-3-{(bis(2-chloroethyl)amino)carbamoyl}pyridinium bromide at 6.25 x 10^-4 M by UV-spectrophotometric analysis; format: ADME, tissue-based; settings: 625 µM
# [10] = test system: Brain; experiment: Prodrug conversion in Sprague-Dawley Rattus norvegicus (rat) brain homogenate assessed as 1-(4-Nitrobenzyl-3-{(bis(2-chloroethyl)amino)carbamoyl}pyridinium bromide level at 40 mg/kg, iv measured at 100 min by UV-spectrophotometric analysis; format: ADME, organism-based; parameters: dose 40 mg/kg, route intravenous; settings: in vivo
# [11] = Half life in silver nitrate solution assessed as conversion to1-(4-Nitrobenzyl-3-{(bis(2-chloroethyl)amino)carbamoyl}pyridinium bromide at 5% after 2 min by UV-Visible spectrophotometric analysis; format: physicochemical
# [12] = test system: Brain; experiment: Prodrug conversion in Sprague-Dawley Rattus norvegicus (rat) brain homogenate assessed as 1-(4-Nitrobenzyl-3-{(bis(2-chloroethyl)amino)carbamoyl}pyridinium bromide level at 40 mg/kg, iv measured at 15 min by UV-spectrophotometric analysis; format: ADME, organism-based; parameters: dose 40 mg/kg, route intravenous; settings: in vivo, 0.25 h
# [13] = test system: Brain; experiment: Prodrug conversion in Sprague-Dawley Rattus norvegicus (rat) brain homogenate assessed as 1-(4-Nitrobenzyl-3-{(bis(2-chloroethyl)amino)carbamoyl}pyridinium bromide level at 40 mg/kg, iv measured at 150 min by UV-spectrophotometric analysis; format: ADME, organism-based; parameters: dose 40 mg/kg, route intravenous; settings: in vivo, 2.5 h
# [14] = test system: Blood; experiment: Prodrug conversion in Sprague-Dawley Rattus norvegicus (rat) blood assessed as 1-(4-Nitrobenzyl-3-{(bis(2-chloroethyl)amino)carbamoyl}pyridinium bromide level at 40 mg/kg, iv measured at 60 min by UV-spectrophotometric analysis; format: ADME, organism-based; parameters: dose 40 mg/kg, route intravenous; settings: in vivo, 1 h
# [15] = test system: Blood; experiment: Prodrug conversion in Sprague-Dawley Rattus norvegicus (rat) blood assessed as 1-(4-Nitrobenzyl-3-{(bis(2-chloroethyl)amino)carbamoyl}pyridinium bromide level at 40 mg/kg, iv measured at 15 min by UV-spectrophotometric analysis; format: ADME, organism-based; parameters: dose 40 mg/kg, route intravenous; settings: in vivo, 0.25 h
# [16] = test system: Brain; experiment: Prodrug conversion in Sprague-Dawley Rattus norvegicus (rat) brain homogenate assessed as 1-(4-Nitrobenzyl-3-{(bis(2-chloroethyl)amino)carbamoyl}pyridinium bromide level at 40 mg/kg, iv measured at 30 min by UV-spectrophotometric analysis; format: ADME, organism-based; parameters: dose 40 mg/kg, route intravenous; settings: in vivo, 0.5 h
# [17] = test system: Brain; experiment: Prodrug conversion in Sprague-Dawley Rattus norvegicus (rat) brain homogenate assessed as 1-(4-Nitrobenzyl-3-{(bis(2-chloroethyl)amino)carbamoyl}pyridinium bromide level at 40 mg/kg, iv measured at 60 min by UV-spectrophotometric analysis; format: ADME, organism-based; parameters: dose 40 mg/kg, route intravenous; settings: in vivo, 1 h
# [18] = test system: Blood; experiment: Prodrug conversion in Sprague-Dawley Rattus norvegicus (rat) blood assessed as 1-(4-Nitrobenzyl-3-{(bis(2-chloroethyl)amino)carbamoyl}pyridinium bromide level at 40 mg/kg, iv measured at 150 min by UV-spectrophotometric analysis; format: ADME, organism-based; parameters: dose 40 mg/kg, route intravenous; settings: in vivo, 2.5 h
# [19] = test system: Blood; experiment: Prodrug conversion in Sprague-Dawley Rattus norvegicus (rat) blood assessed as 1-(4-Nitrobenzyl-3-{(bis(2-chloroethyl)amino)carbamoyl}pyridinium bromide level at 40 mg/kg, iv measured at 30 min by UV-spectrophotometric analysis; format: ADME, organism-based; parameters: dose 40 mg/kg, route intravenous; settings: in vivo, 0.5 h
# [20] = test system: Blood; experiment: Half life in 100% Rattus norvegicus (rat) whole blood assessed as conversion to 1-(4-Nitrobenzyl-3-{(bis(2-chloroethyl)amino)carbamoyl}pyridinium bromide at 10 x 10^-4 M by UV-spectrophotometric analysis; format: ADME, tissue-based; settings: 1000 µM
# [21] = test system: Blood; experiment: Half life in 100% Homo sapiens (human) whole blood assessed as conversion to 1-(4-Nitrobenzyl-3-{(bis(2-chloroethyl)amino)carbamoyl}pyridinium bromide at 10 x 10^-4 M by UV-spectrophotometric analysis; format: ADME, tissue-based; settings: 1000 µM
smiles,measurement,setting,value
O=C(C1=CN(Cc2ccccc2)C=CC1)N(CCCl)CCCl,t1/2,[1],5 min
same,t1/2,[2],36 min
same,t1/2,[3],29 min
same,degraded at 1440 h,[4],9%
same,degraded at 1440 h,[5],18%
same,t1/2,[6],25 min
O=C(c1ccc[n+](Cc2ccc([N+](=O)[O-])cc2)c1)N(CCCl)CCCl.[Br-],half-life,[7],8.4 min
O=C(c1ccc[n+](Cc2ccccc2)c1)N(CCCl)CCCl.[Br-],half-life,[7],14.7 min
O=C(C1=CN(Cc2ccc([N+](=O)[O-])cc2)C=CC1)N(CCCl)CCCl,Drug metabolism,[8],12 µg/mL
same,t1/2,[9],31 min
same,Drug metabolism,[10],27 µg/g
same,t1/2,[11],7 min
same,Drug metabolism,[12],4 µg/g
same,Drug metabolism,[13],42 µg/g
same,Drug metabolism,[14],35 µg/mL
same,Drug metabolism,[15],60 µg/mL
same,Drug metabolism,[16],9 µg/g
same,Drug metabolism,[17],17 µg/g
same,degraded at 1440 h,[4],3%
same,degraded at 1440 h,[5],8%
same,Drug metabolism,[18],0 µg/mL
same,Drug metabolism,[19],48 µg/mL
same,t1/2,[20],34 min
same,t1/2,[21],39 min
